Molecules are shown by their SMILES.

The target in one data set is Cytochrome P450 3A4 (Homo sapiens, UniProt P08684). Kind of data set: Inhibition of CYP3A4 (unknown origin). It is filed as ADME.
The nature of data set [1]: Half life in BALB/c mouse at 2 mg/kg, iv. It is filed as ADME, organism-based. The note with it: in vivo.
Another data set deals with Cytochrome P450 2D6 (Homo sapiens, UniProt P10635). Kind of data set: Inhibition of CYP2D6 (unknown origin). It is filed as ADME.
The target in data set [2] is T1, Nuclear receptor ROR-beta (Homo sapiens, UniProt Q92753).
T1 sequence (Q92753 whole entry): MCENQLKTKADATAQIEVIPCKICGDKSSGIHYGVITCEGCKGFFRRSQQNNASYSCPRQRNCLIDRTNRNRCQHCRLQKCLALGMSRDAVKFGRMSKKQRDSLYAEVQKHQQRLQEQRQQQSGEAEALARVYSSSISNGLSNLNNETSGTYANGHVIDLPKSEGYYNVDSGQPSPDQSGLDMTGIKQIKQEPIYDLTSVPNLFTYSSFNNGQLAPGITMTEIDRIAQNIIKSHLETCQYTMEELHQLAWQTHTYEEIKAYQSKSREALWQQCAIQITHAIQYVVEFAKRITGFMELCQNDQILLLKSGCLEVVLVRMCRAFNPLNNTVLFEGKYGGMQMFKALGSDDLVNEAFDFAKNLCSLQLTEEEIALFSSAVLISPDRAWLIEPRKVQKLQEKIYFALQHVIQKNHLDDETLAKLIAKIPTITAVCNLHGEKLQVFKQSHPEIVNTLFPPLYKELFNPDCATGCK
Nature of the data set: Inverse agonist activity at Gal4-fused RORbeta (unknown origin).

In another data set the target is T2, Cytochrome P450 1A2 (Homo sapiens, UniProt P05177).
T2 sequence (P05177 whole entry): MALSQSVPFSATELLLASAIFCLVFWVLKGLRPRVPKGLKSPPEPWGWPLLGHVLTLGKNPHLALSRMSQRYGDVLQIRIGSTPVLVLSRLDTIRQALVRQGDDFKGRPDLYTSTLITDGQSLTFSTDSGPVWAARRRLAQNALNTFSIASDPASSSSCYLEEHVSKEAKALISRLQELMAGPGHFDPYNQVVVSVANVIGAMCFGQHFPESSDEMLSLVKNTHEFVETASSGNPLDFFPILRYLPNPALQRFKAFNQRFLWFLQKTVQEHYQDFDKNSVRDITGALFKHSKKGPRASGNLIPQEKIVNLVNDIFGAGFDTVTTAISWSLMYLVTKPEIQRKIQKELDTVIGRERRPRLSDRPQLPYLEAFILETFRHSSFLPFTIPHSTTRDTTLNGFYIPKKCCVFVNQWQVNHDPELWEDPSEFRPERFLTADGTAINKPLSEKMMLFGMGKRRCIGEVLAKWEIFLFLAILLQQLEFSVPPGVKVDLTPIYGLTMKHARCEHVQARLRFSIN
Kind of data set: Inhibition of CYP1A2 (unknown origin). It is filed as ADME.

The target of a further data set is T3, Cytochrome P450 2C8 (Homo sapiens, UniProt P10632).
T3 sequence (P10632 whole entry): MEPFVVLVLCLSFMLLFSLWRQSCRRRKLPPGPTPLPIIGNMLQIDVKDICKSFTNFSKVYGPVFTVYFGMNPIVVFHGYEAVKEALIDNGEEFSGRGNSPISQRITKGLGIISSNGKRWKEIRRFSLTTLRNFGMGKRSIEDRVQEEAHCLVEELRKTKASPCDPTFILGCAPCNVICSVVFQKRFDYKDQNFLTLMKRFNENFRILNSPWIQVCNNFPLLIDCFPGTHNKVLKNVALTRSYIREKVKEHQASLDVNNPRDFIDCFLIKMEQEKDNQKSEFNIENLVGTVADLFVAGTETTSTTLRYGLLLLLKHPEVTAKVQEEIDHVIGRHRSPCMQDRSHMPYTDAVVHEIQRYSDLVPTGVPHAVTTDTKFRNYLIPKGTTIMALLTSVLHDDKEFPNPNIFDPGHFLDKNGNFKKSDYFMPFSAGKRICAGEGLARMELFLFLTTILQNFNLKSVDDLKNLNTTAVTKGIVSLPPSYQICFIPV
Nature of the data set: Inhibition of CYP2C8 (unknown origin). It is filed as ADME.

Data set [3] can be described thus: Permeability across basolateral to apical side in human Caco2 cells. It is filed as ADME, cell-based. The note with it: Caco-2, read-out: permeability. Background: Caco-2 cells form a polarised layer with tight junctions and transporters.
Data set [4] in a line: AUC in BALB/c mouse at 2 mg/kg, iv. The note with it: in vivo. Also on record: dose 2 mg/kg. It is filed as ADME, organism-based.
A short description of data set [5]: Kinetic solubility of compound in 0.1 N HCK solvent at pH 1. It is filed as physicochemical. The note with it: 0.1 N HCl (printed 0.1 N HCK), read-out: Kinetic_solubility.
Data set [6] is described as follows: Half life in mouse liver microsomes. It is filed as ADME, Microsome. A general note: Microsomes from liver hold many membrane-bound enzymes, among them those of drug oxidation.
A short description of data set [7]: Half life in rat liver microsomes. It is filed as ADME, Microsome.
Data set [8] in a line: AUC in BALB/c mouse at 4 mg/kg, po. More on the design: dose 4 mg/kg. It is filed as ADME, organism-based. The following applies: in vivo.

Cytochrome P450 3A4, sequence (P08684 whole entry): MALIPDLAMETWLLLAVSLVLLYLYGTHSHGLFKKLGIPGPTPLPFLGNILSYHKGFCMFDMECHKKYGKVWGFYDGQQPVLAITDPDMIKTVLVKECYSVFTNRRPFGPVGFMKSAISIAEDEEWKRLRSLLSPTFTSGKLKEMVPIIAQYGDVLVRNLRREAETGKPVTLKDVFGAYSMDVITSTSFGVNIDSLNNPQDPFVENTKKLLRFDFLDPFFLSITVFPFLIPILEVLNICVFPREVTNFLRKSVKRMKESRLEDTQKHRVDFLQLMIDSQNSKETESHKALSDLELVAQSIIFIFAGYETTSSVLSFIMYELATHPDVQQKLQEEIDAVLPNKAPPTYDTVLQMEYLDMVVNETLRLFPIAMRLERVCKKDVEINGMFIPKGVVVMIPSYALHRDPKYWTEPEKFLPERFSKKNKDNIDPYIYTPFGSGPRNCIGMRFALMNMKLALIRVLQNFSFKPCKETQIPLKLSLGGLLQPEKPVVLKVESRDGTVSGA
Cytochrome P450 2D6, sequence (P10635 whole entry): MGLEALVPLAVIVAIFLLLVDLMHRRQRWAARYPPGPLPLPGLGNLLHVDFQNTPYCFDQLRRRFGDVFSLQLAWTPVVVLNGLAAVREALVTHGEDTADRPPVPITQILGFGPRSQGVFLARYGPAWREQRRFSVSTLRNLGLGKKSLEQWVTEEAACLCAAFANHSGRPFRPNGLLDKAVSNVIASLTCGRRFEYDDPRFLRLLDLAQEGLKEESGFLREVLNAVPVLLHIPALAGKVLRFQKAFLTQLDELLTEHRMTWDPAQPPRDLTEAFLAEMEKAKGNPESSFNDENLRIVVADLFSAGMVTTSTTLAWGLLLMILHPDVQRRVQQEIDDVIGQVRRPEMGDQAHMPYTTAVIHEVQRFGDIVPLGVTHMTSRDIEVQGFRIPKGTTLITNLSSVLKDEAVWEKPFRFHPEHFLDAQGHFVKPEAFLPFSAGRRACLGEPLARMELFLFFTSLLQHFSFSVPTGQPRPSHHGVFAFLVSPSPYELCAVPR

On to `CC(C)(O)CN1C(=O)[C@H](F)C[C@H]1C(=O)N1CC[C@@]2(S(=O)(=O)c3ccc(F)cc3)c3ccc(C(F)(C(F)(F)F)C(F)(F)F)cc3CC[C@@H]12`, for which the IC50 on Cytochrome P450 3A4, against Cytochrome P450 2D6, against Cytochrome P450 1A2 and against Cytochrome P450 2C8 was more than 20 µM each time. In addition, the figures for the half-life in data set [1], in data set [6] and in data set [7] were 15 h, more than 2 h and more than 2 h, respectively. Moreover, the EC50 (commonly the concentration needed to bring the measured effect to its halfway point) in data set [2] came out at 8.4 µM. Moreover, the Papp B→A in data set [3] was 19 ×10⁻⁶ cm/s. Moreover, the AUC (usually concentration integrated over time) was 23.7 µM·h in data set [4] and 44.4 µM·h in data set [8]. In addition, in [5], the solubility kinetic is less than 1 µg/mL.

Source of the values: ChEMBL document CHEMBL4665919, “Novel Tricyclic Pyroglutamide Derivatives as Potent RORγt Inverse Agonists Identified using a Virtual Screening Approach” (ACS Med Chem Lett, 2020).
